{"source": "patent US11760979B2", "about": "“Isolated liver cancer stem cell and method for drug screening thereof” (LICENSE BIOTECHNOLOGY Co., Ltd., priority 2020, dated 2023)", "key": {"TW-1 cell line [1]": {"tested_on": "TW-1 cell line", "experiment": "In vitro drug screening test (cell survival rate)", "type": "cell-based, rat", "protocol": "(§1) The purpose of the method of drug screening is to evaluate the inhibitory ability of the active ingredients of currently used anticancer drugs against the growth, recurrence, or metastasis of TW-1 cell line, and HTC cell line was used as control group. The active ingredient of anticancer drug be used in the embodiment was Sorafenib.\nTW-1 cell line and HTC cell line were seeded in 96-well plate with 2×10^5 cells/well, 1 μM, 5 μM, 10 μM, 20 μM and 40 μM of Sorafenib were respectfully used for treating cells once the cells were attached, and the negative control group cells were treated with PBS."}, "TW-1 cell line [2]": {"tested_on": "TW-1 cell line", "experiment": "In vivo drug screening test, TW-1 cell line transplanted subcutaneously", "parameters": "species or system BALB/cAnN.Cg-Foxnl^nu/CrlNarl nude mice", "details": "nude mice", "protocol": "as §1, with “BALB/cAnN.Cg-Foxnl^nu/CrlNarl nude mice were” for “HTC cell line was”, “the animal model.” for “control group.”\nBALB/cAnN.Cg-Foxnl^nu/CrlNarl nude mice were grouped into 3 groups, control group (Control), low-dose Sorafenib group (10 mg/kg body weight (BD)) and high-dose Sorafenib group (50 mg/kg body weight (BD)), 5 mice in each group.\nTransplanting of TW-1 cell line into BALB/cAnN.Cg-Foxnl^nu/CrlNarl nude mice were processed with 5×10^5 cells by subcutaneous injection for evaluating the effect of anticancer drugs against TW-1 cell line.\nAfter the tumor grew to appropriate size (100-150 mm^3) that was able to be measured at the TW-1 cell line transplanted position, the mice were treated with Sorafenib (Sorafenib groups) or PBS (control group) once per three days, and tumor generation of the mice were measured for 30 days the tumor volume of mice were recorded once per five days."}}, "note": "“Also recorded” adds a separate entry of the source."}
{"compound": "CNC(=O)c1cc(Oc2ccc(NC(=O)Nc3ccc(Cl)c(C(F)(F)F)c3)cc2)ccn1", "note": "[Sorafenib]", "values": [{"measurement": "cell growth", "setting": "TW-1 cell line [1]; 40 μM Sorafenib, 24 and 48 hours post-treatment", "result": "the cell growth was decreased; also recorded: had the ability to inhibit growth of TW-1 cell line, but TW-1 cell line was not killed"}, {"measurement": "sensitivity to Sorafenib (cell survival rate), TW-1 cell line compared with HTC cell line", "setting": "TW-1 cell line [1]; concentration lower than 10 μM, after treatment for 24 hours, HTC cell line as control", "result": "higher sensitivity"}, {"measurement": "drug tolerance of TW-1 cell line compared with HTC cell lines", "setting": "TW-1 cell line [1]; high concentration (up to 40 μM), more obvious after 48 hours post-treatment", "result": "much higher drug tolerance"}, {"measurement": "tumor volume of high-dose Sorafenib group vs low-dose Sorafenib group", "setting": "TW-1 cell line [2]; 50 mg/kg vs 10 mg/kg body weight, once per three days, 30 days", "result": "significantly higher than that in low-dose Sorafenib group mice"}, {"measurement": "tumor volume of Sorafenib treating groups vs control group", "setting": "TW-1 cell line [2]; 10 and 50 mg/kg body weight, once per three days, measured for 30 days", "result": "significantly higher than that in control group"}, {"measurement": "metastasis of TW-1 cell line to lung", "setting": "TW-1 cell line [2]; high-dose Sorafenib (50 mg/kg body weight), drug dependent", "result": "high-dose Sorafenib induced high metastasis"}]}
